This is an account of results in patent US20070167466A1, “"Pyrazolo [4,3-d]pyrimidines, processes for their preparation and methods of use"” (priority 2003, published 2007).

The subject of series [1] is K562 (human chronic myeloblastic leukemia). Nature of the series: In vitro cytotoxic activity, Calcein AM, three days. It is filed as cell-based. Conditions: read-out: K-562 IC50. On the procedure: (§1) We have been using the following cell lines: HELA (human cervical carcinoma), MCF7 (human breast adenocarcinoma), NIH 3T3 (mouse fibroblasts), HOS (human osteogenic sarcoma), HL 60 (human promyelocytic leukemia), G 361 (human malignant melanoma), K562 (human chronic myeloblastic leukemia), CEM (human lymphoblastoid leukaemia). Tested drugs were added to the cell cultures in six different concentration and kept at 37° C. and 5% CO2 for three days. All cell lines were grown in DMBM medium (Gibco BRL) supplemented with 10% (v/v) fetal bovine serum and L-glutamine and maintained at 37° C. in a humidified atmosphere with 5% CO2. 10^4 cells were seeded into each well of 96 well plate, allowed to stabilize for at least 2 h and then tested compounds were added at various concentrations ranging from 200 to 0.2 μM in triplicates. Three days after drug addition Calcein AM solution (Molecular Probes) was added and let to enter the cells for 1 hour. Fluorescence of viable cells was quantified employing Fluoroskan Ascent (Microsystems).

In series [2] the test system is MCF7 (human breast adenocarcinoma). The series is described as above. It is filed as cell-based. The protocol:
as §1

Series [3] relates to Cytokinin-dependent tobacco callus Nicotiana tabacum L. cv. Wisconsins 38. Put plainly: Tobacco callus bioassay for cytotoxicity (herbicidal activity). It is filed as cell-based. Conditions: four weeks. On the procedure: The compounds to be tested were dissolved in dimethylsulfoxide (DMSO) and the solution brought up to 10^−3 M with distilled water. […] Cytokinin-dependent tobacco callus Nicotiana tabacum L. cv. […] Subcultivation was carried out every three weeks. Fourteen days before the bioassay, the callus tissue was transferred to the media without 6-benzylaminopurine. Compounds were tested with two different concentrations of 6-benzylaminopurine (10^−5 M and 10^−6 M). Inhibitory growth activity was determined from the increase in fresh callus weight after four weeks of cultivation. Five replicates were prepared for each concentration tested and the entire test was repeated at least twice.

The target in series [4] is CDK2 (p33^cdk2, cyclin E) (Homo sapiens, UniProt P24941). Put plainly: CDK inhibition assay, p33^cdk2 kinase, histone H1 phosphorylation.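 Also: Baculovirus-expressed kinase/cyclin complex from Sf9 cell extract, 10 min at 30 °C, phosphoproteins separated by SDS gel and quantified by image analysis, activity relative to DMSO control.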
Method: Cyclin-dependent kinases (p34^cdc2, p33^cdk2) and cyclins (cyclin B, E) are produced in Sf9 insect cells coinfected with appropriate baculoviral constructs. The cells are harvested 68-72 hrs post infection in lysis buffer for 30 min on ice and the soluble fraction is recovered by centrifugation at 14.000 g for 10 min. The protein extract is stored at −80° C.
Lysis buffer: 50mM Tris pH 7.4, 150mM NaCl, 5 mM EDTA, 20 mM NaF, 1% Tween, 1 mM DTT, 0.1 mM PMSF, leupeptine, aprotonine.
To carry out experiments on kinetics under linear conditions, the final point test system for kinase activity measurement is used. The kinase is added to reaction mixture in such a way as to obtain linear activity with respect to the concentration of enzyme and with respect to time.
Kinase activity is determined at 30° C. in the kinase buffer.
Tested compounds are usually dissolved to 100 mM solutions in DMSO, final concentration of DMSO in reaction mixture never exceeds 1%. The controls contain suitable dilutions of DMSO.
After 10 min, addition 3×SDS sample buffer stops the incubations. Phosphorylated proteins are separated electrophoretically using 10% SDS polyacrylamide gel. The measurement of kinase activity is done using digital image analysis.
The kinase activity is expressed as a percentage of maximum activity, the apparent inhibition constants are determined by graphic analysis.
Kinase buffer: 50 mM Hepes pH 7.4, 10 mM MgCl2, 5 mM EGTA, 10 mM
The target in series [5] is T1, CDK1 (p34^cdc2, cyclin B) (Homo sapiens, UniProt P06493).
T1 construct: made in house; host or cells: Sf9 insect cells (baculovirus co-infection)
Put plainly: CDK inhibition assay, p34^cdc2 kinase, histone H1 phosphorylation. Conditions: 15 μM ATP, histone H1, 30° C. It is filed as biochemical. On the procedure: The controls contain suitable dilutions of DMSO.
2-glycerolphosphate, 1 mM NaF, 1 mM DTT

The target of another series is MMK1 protein kinase (Vicia faba, UniProt A0AAV1B7B8). Nature of the series: Plant MMK1 protein kinase inhibition assay. Particulars: plant kinase purified from Vicia faba extracts. It is filed as biochemical. The protocol: Protein extraction and purification of pant CDK by binding to p13^suc1-beads or immunopurification with an antibody specific to the cdc2a-MS protein was carried out as described previously (Bögre et al. 1997, Plant Physiol. 113, 1997, 841-852). The MMK1 protein kinase was purified with a specific antibody from Vicia faba extracts as described by Bögre et al. 1997a, Plant Cell 9, 75-83). Protein kinase activity was measured as described above in Example 19. The quantification of radioactivity incorporated into histone H1 or myelin basic protein was undertaken using Phosphoimager (original gel images shown on FIG. 1). IC50 were calculated from dose-response curves. The drugs inhibited the activity of immunopurified Vicia faba and alfalfa Cdc2-kinase. […] In contrast to the regular bipolar spindle in untreated cell, in drug-treated metaphase cells abnormally short and dense kinetochore microtubule fibres were observed. These microtubules were randomly arranged in the vicinity of the kinetochores and connected the chromosomes. Thus the chromosomes were not aligned on the metaphase plate but were arranged in a circle, with kinetochores pointing inwards and chromosome arms pointing outwards. γ-tubulin, which plays a role in microtubule nucleation, also localised to the centre of the monopolar spindle.

The mark [6] stands for this setting: Nicotiana tabacum, 672 h, read-out: IC50, growth of tobacco callus, 10^−5 M BAP, 10^−5 M 6-benzylaminopurine.
[7] abbreviates: Nicotiana tabacum, 672 h, 10^−6 M 6-benzylaminopurine, read-out: IC50, growth of tobacco callus, 10^−6 M BAP.

Counter-ions that a name gives are not always drawn. Like-named read-outs stand apart in the source and are kept apart here.

T1 sequence (P06493 whole entry, species assumed): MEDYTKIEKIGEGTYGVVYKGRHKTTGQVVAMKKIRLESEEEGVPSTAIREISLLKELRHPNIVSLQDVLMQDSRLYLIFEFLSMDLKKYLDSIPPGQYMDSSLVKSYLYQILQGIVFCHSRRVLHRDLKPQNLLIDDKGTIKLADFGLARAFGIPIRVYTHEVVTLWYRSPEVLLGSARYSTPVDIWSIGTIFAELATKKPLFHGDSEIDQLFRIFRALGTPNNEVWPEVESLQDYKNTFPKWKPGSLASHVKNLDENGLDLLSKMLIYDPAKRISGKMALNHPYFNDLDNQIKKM
T1 sequence (P14635 whole entry partner, species assumed): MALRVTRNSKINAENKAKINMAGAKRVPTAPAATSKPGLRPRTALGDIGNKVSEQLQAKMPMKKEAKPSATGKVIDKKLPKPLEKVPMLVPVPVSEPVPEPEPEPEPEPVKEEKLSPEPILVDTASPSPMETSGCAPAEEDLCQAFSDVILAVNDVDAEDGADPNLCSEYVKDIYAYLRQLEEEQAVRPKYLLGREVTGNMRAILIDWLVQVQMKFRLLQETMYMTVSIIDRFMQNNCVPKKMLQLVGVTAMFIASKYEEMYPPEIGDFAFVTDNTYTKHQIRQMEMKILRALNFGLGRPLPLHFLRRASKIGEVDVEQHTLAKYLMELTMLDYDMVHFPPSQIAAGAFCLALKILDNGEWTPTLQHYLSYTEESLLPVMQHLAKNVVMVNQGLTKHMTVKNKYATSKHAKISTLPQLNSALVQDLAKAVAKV
MMK1 protein kinase, sequence (A0AAV1B7B8 entry or part of it): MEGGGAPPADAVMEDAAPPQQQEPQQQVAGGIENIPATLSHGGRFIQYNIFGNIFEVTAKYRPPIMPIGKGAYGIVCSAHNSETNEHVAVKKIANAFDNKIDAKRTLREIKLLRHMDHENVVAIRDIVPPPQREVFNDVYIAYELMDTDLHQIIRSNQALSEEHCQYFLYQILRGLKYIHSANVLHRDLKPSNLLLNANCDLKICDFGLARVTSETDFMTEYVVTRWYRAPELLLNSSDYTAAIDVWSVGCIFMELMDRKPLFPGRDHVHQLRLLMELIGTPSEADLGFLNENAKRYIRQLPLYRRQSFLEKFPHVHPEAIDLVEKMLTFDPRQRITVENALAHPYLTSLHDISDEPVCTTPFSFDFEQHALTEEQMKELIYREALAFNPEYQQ

Regarding `CC(C)c1n[nH]c2c(Nc3cccc(Cl)c3)ncnc12` (as salt: salt) [3-chloroanilino / isopropyl, 7-(3-chloroanilino)-3-isopropylpyrazolo[4,3-d]pyrimidine], the melting point lay within 213 to 216 °C.
With `CC(C)c1n[nH]c2c(Nc3ccccc3)ncnc12` [anilino / isopropyl], the half-inhibitory concentration (IC50) was 21 µM in series [1] (Homo sapiens, K562, 72 h); 15 µM in series [2] (Homo sapiens, MCF7, 72 h); 41 µM in series [3] (setting [6]); 5.3 µM in series [3] (setting [7]); 5.2 µM in series [4]; 4.4 µM in series [5].
With `CC(C)c1n[nH]c2c(NC3CCCCC3)ncnc12` [cyclohexylamino / isopropyl], the 50% inhibitory concentration (IC50) in series [1] (Homo sapiens, K562, 72 h) is 98 µM; in series [2] (Homo sapiens, MCF7, 72 h), 95 µM; in series [3] (setting [6]) it was 46 µM; in series [3] (setting [7]), 9.4 µM; in series [4] it was 95 µM; in series [5] it was 80 µM.
Take `CC(C)c1n[nH]c2c(NCc3ccc(Cl)cc3)ncnc12` [4-chlorobenzylamino / isopropyl]: the half-inhibitory concentration (IC50) in series [3] (setting [6]) was 12.1 µM; in series [3] (setting [7]) it was 4.7 µM; in series [4], 1.1 µM; in series [5], 1.8 µM.
With `CC(C)c1n[nH]c2c(NCc3ccccc3Cl)ncnc12` [2-chlorobenzylamino / isopropyl], the IC50 in series [1] (Homo sapiens, K562, 72 h) is 21 µM; in series [2] (Homo sapiens, MCF7, 72 h), 15 µM; in series [3] (setting [6]), 31 µM; in series [3] (setting [7]), 4.6 µM; in series [4], 2 µM; in series [5], 2.1 µM.
Regarding `Cc1n[nH]c2c(NCc3ccccc3Cl)ncnc12` [2-chlorobenzylamino / methyl], the concentration for half-maximal inhibition (IC50) against MMK1 protein kinase was 25 µM; in series [4] (read-out: CDK2 IC50, 15 μM ATP, histone H1, 30° C.) it was 24 µM; in series [5], 25 µM.
Regarding `CCCCCNc1ncnc2c(C(C)C)n[nH]c12` [pentylamino / isopropyl, 7-pentylamino-3-isopropylpyrazolo[4,3-d]pyrimidine], the melting point was in the range of 73 to 75 °C. In addition, the IC50 in series [1] (Homo sapiens, K562, 72 h) was 61 µM. The IC50 in series [2] (Homo sapiens, MCF7, 72 h) is 32 µM. The same molecule came in with an IC50 in series [4] of 1.4 µM. In series [5], this molecule gave an IC50 of 1.7 µM.
`CC(C)c1n[nH]c2c(NCc3ccco3)ncnc12` [furfurylamino / isopropyl, 7-furfurylamino-3-isopropylpyrazolo[4,3-d]pyrimidine] gave a melting point of 179 to 182 °C. Moreover, the IC50 in series [1] (Homo sapiens, K562, 72 h) was above 167 µM. For the same molecule, the IC50 in series [2] (Homo sapiens, MCF7, 72 h) was 130 µM. In addition, in series [3] (setting [6]), the IC50 was 25 µM. Further, in series [3] (setting [7]), the IC50 was found to be 9.4 µM. In series [4], the IC50 worked out at 0.8 µM. The midpoint of inhibition in series [5], the IC50, lay at 1.8 µM.
As to `Cc1ccccc1CNc1ncnc2c(C(C)C)n[nH]c12` [2-methylbenzylamino / isopropyl], the half-maximal inhibitory concentration (IC50) in series [1] (Homo sapiens, K562, 72 h) is 75 µM; in series [2] (Homo sapiens, MCF7, 72 h), 63 µM; in series [3] (setting [6]), 14 µM; in series [3] (setting [7]) it was 4.2 µM; in series [4] it was 1.4 µM; in series [5], 2 µM.
With `CC(C)c1n[nH]c2c(NC3CCCC3)ncnc12` [cyclopentylamino / isopropyl], the half-maximal inhibitory concentration (IC50) in series [3] (setting [6]) was 15.6 µM; in series [3] (setting [7]), 8.4 µM; in series [4] it was 20 µM; in series [5] it was 18 µM.
As for `CC(C)=CCNc1ncnc2c(C(C)C)n[nH]c12` [isopentenylamino / isopropyl, 7-(isopent-2-en-(1-yl)amino)-3-isopropylpyrazolo[4,3-d]pyrimidine], the IC50 was above 167 µM in series [1] (Homo sapiens, K562, 72 h); above 167 µM in series [2] (Homo sapiens, MCF7, 72 h); 15.3 µM in series [3] (setting [6]); 1.7 µM in series [3] (setting [7]); 1.3 µM in series [4]; 4.5 µM in series [5].
In the case of `Cn1cnc2c(NCc3ccccc3)nc(NCCO)nc21` [Olomoucine, reference compound], the half-inhibitory concentration (IC50) in series [1] (Homo sapiens, K562, 72 h) is above 167 µM; in series [2] (Homo sapiens, MCF7, 72 h) it was 132 µM; in series [3] (setting [6]), above 50 µM; in series [3] (setting [7]) it was above 50 µM.
As for `CC(C)c1n[nH]c2c(Nc3ccc(O)c(C(=O)O)c3)ncnc12` [3-carboxy-4-hydroxyanilino / isopropyl], the IC50 in series [1] (Homo sapiens, K562, 72 h) is 25 µM; in series [2] (Homo sapiens, MCF7, 72 h), 12 µM; in series [4], 4.2 µM; in series [5] it was 3.1 µM.
For `Cc1cccc(CNc2ncnc3c(C(C)C)n[nH]c23)c1` [3-methylbenzylamino / isopropyl], the IC50 in series [1] (Homo sapiens, K562, 72 h) was 94 µM; in series [2] (Homo sapiens, MCF7, 72 h) it was 76 µM; in series [3] (setting [6]) it was 26 µM; in series [3] (setting [7]), 8.5 µM; in series [4], 3.1 µM; in series [5], 2.2 µM.
Consider `C=CCNc1ncnc2c(C(C)C)n[nH]c12` [allylamino / isopropyl], for which the IC50 in series [1] (Homo sapiens, K562, 72 h) was 77 µM; in series [2] (Homo sapiens, MCF7, 72 h) it was 64 µM; in series [3] (setting [6]), 18 µM; in series [3] (setting [7]), 3.7 µM; in series [4], 14 µM; in series [5] it was 16 µM.
With `CC(C)c1n[nH]c2c(Nc3ccc(Br)cc3)ncnc12` [4-bromoanilino / isopropyl], the IC50 in series [1] (Homo sapiens, K562, 72 h) is 7 µM; in series [2] (Homo sapiens, MCF7, 72 h) it was 5 µM; in series [4], 1.9 µM; in series [5], 1.7 µM.
Consider `CC(C)c1n[nH]c2c(NC3CCC3)ncnc12` [cyclobutylamino / isopropyl], for which the IC50 is 60 µM in series [1]; 45 µM in series [2]; 4.3 µM in series [3] (10^−6 M 6-benzylaminopurine, read-out: IC50, growth of tobacco callus, 10^−6 M BAP); 12.1 µM in series [3] (read-out: IC50, growth of tobacco callus, 10^−5 M BAP, 10^−5 M 6-benzylaminopurine).
`CC(C)c1n[nH]c2c(NCc3cccc(Cl)c3)ncnc12` [3-chlorobenzylamino / isopropyl]: the IC50 in series [1] (Homo sapiens, K562, 72 h) was 26 µM; in series [2] (Homo sapiens, MCF7, 72 h), 24 µM; in series [3] (setting [6]), 20 µM; in series [3] (setting [7]), 1.7 µM; in series [4] it was 9.4 µM; in series [5] it was 8.8 µM.
For the molecule `COc1ccc(CNc2ncnc3c(C(C)C)n[nH]c23)cc1` [4-methoxybenzylamino / isopropyl, 7-(4-methoxybenzyl)amino-3-isopropylpyrazolo[4,3d]pyrimidine], the melting point lay in the range of 143 to 144 °C. Besides, the IC50 in series [1] (Homo sapiens, K562, 72 h) was 41 µM. The IC50 in series [2] (Homo sapiens, MCF7, 72 h) was 28 µM. Besides, 1 µM corresponded to half-maximal inhibition in series [4] (IC50). In series [5], this molecule returned an IC50 of 2.3 µM.
`Cc1n[nH]c2c(NC3CCC3)ncnc12` [cyclobutylamino / methyl]: the IC50 in series [1] (Homo sapiens, K562, 72 h) was 101 µM; in series [2] (Homo sapiens, MCF7, 72 h), 89 µM; in series [4] it was 28 µM; in series [5], 35 µM.
Taken in the same sequence, the figures for `CC(C)c1n[nH]c2c(Nc3cc(N)cc(Cl)c3)ncnc12` [3-chloro-5-aminoanilino / isopropyl] were 35 µM, 29 µM, 5.8 µM and 6.1 µM.

For orientation: melting point means the temperature, or range, at which the solid turns liquid. As a reminder, the IC50 is the concentration that inhibits the measured activity by half.
